Test results published in ChEMBL document CHEMBL1777699, “Part 2: Design, synthesis and evaluation of hydroxyproline-derived α2δ ligands” (Bioorg Med Chem Lett, 2011).

Tests used:
[1] = Displacement of [3H]gabapentin from voltage gated calcium channel alpha2delta from pig cerebral cortex by scintillation counting; format: tissue-based, Sus scrofa
[2] = species: Canis familiaris; test: Unbound clearance in dog; format: ADME, organism-based, Canis lupus familiaris; conditions: in vivo
[3] = species: Rattus norvegicus; test: Unbound clearance in rat; format: ADME, organism-based; conditions: in vivo
[4] = Plasma protein binding in human; format: ADME, cell-free; conditions: read-out: PPB (converted)
[5] = Tmax in human; format: ADME; conditions: plasma
[6] = Half life in dog; format: ADME, organism-based, Canis lupus familiaris; conditions: in vivo
[7] = Lipophilicity, log D of the compound; format: physicochemical; conditions: octanol/water
[8] = Half life in human; format: ADME, cell-free; conditions: plasma
[9] = test system: Plasma; test: Cmax in human; format: ADME, organism-based; conditions: in vivo
[10] = Half life in rat; format: ADME, organism-based; conditions: in vivo
[11] = Drug level in rat urine after 24 hrs; format: ADME; conditions: read-out: Drug uptake

O=C(O)[C@@H]1C[C@H](Oc2ccccc2)CN1
IC50 [1]: 0.102 µM

Cl.O=C(O)[C@@H]1C[C@H](Oc2cccc(Cl)c2)CN1
CL free [2]: 49 mL/min/kg
CL free [3]: 41 mL/min/kg
fraction unbound [4]: 0.07
Tmax [5]: 30 min
half-life [6]: 90 min
logD [7]: -0.1
half-life [8]: 138 min
IC50 [1]: 0.004 µM
Cmax [9]: 2400 nM
half-life [10]: 24 min

O=C(O)[C@@H]1C[C@H](OCc2ccc(Cl)cc2)CN1
CL free [3]: 26 mL/min/kg
fraction unbound [4]: 0.17
logD [7]: -0.2
IC50 [1]: 0.048 µM
half-life [10]: 24 min

CC(C)(C)OC(=O)N1C[C@@H](Oc2cccc(Cl)c2)C[C@H]1C(=O)O
IC50 [1]: > 1 µM

O=C(O)[C@@H]1C[C@H](Oc2ccccc2Cl)CN1
IC50 [1]: 0.052 µM

CCC(C)O[C@@H]1CN[C@H](C(=O)O)C1 (stereo partly drawn)
IC50 [1]: 0.269 µM

O=C(O)[C@@H]1C[C@H](Sc2cccc(Cl)c2)CN1
CL free [3]: 56 mL/min/kg
fraction unbound [4]: 0.16
logD [7]: 0.3
IC50 [1]: 0.007 µM
half-life [10]: 18 min

O=C(O)CNCCSc1ccc(Cl)cc1
IC50 [1]: 0.195 µM

C[C@@]1(C(=O)O)C[C@H](Oc2cccc(Cl)c2)CN1 (stereo in doubt; 37)
IC50 [1]: > 10 µM

O=C(O)[C@@H]1C[C@H](Oc2cccc(O)c2)CN1
IC50 [1]: 0.094 µM

O=C(O)[C@@H]1C[C@H](Sc2ccc(Cl)cc2)CN1
IC50 [1]: 0.072 µM

O=C(O)CNCCOc1ccc(Cl)cc1
IC50 [1]: > 8 µM

O=C(O)[C@@H]1C[C@H](Oc2ccc3ccccc3c2)CN1
IC50 [1]: 0.03 µM

CC(C)(C)OC(=O)[C@@H]1C[C@H](Oc2cccc(Cl)c2)CN1
IC50 [1]: 0.325 µM

O=C(O)[C@@H]1C[C@H](Oc2ccc(Cl)c(F)c2)CN1
CL free [3]: 108 mL/min/kg
fraction unbound [4]: 0.05
logD [7]: 0.1
IC50 [1]: 0.026 µM
half-life [10]: 90 min

C[C@@]1(C(=O)O)C[C@H](Oc2cccc(Cl)c2)CN1 (stereo in doubt; 36)
IC50 [1]: 1.26 µM

N#Cc1ccccc1O[C@@H]1CN[C@H](C(=O)O)C1
IC50 [1]: > 10 µM

C[C@@H](CNCC(=O)O)Oc1ccc(Cl)cc1
IC50 [1]: 0.523 µM

O=C(O)[C@@H]1C[C@H](Oc2ccc3c(c2)OCC3)CN1
CL free [3]: 111 mL/min/kg
fraction unbound [4]: 0.11
logD [7]: -0.1
IC50 [1]: 0.011 µM
half-life [10]: 60 min

O=C(O)[C@@H]1C[C@H](Oc2ccc(OC(F)(F)F)cc2)CN1
IC50 [1]: 1.68 µM

COC(=O)[C@@H]1C[C@H](Oc2cccc(Cl)c2)CN1C(=O)OC(C)(C)C
dose excreted at 24 h [11]: 85%

O=C(O)[C@@H]1C[C@H](Oc2ccc(Cl)cn2)CN1
IC50 [1]: 0.399 µM

O=C(O)[C@H]1C[C@@H](Oc2ccc(Cl)cc2)CN1
IC50 [1]: > 10 µM

O=C(O)[C@@H]1C[C@H](Oc2ccc(Cl)cc2)CN1
IC50 [1]: 0.032 µM

O=C(O)[C@@H]1C[C@H](Oc2cccc(F)c2)CN1
IC50 [1]: 0.017 µM

CCCN1C[C@@H](Oc2cccc(Cl)c2)C[C@H]1C(=O)O
IC50 [1]: > 1 µM

O=C(O)[C@@H]1C[C@H](OCc2cccc(Cl)c2)CN1
IC50 [1]: 0.014 µM
